This note sets out measurements from PubChem BioAssay (NCI).

Assay in all cases: NCI-60 cell line screen, 48 h
For assay [1], the system named is UO-31 renal.
The test system of assay [2] is K-562 leukemia.
Assay [3] relates to TK-10 renal.
The subject of assay [4] is HCT-116 colon.
Assay [5] concerns IGROV1 ovarian.
Assay [6] relates to MOLT-4 leukemia.
The test system of assay [7] is MDA-MB-435.
Assay [8] has as its system BT-549 breast.
Assay [9] relates to HOP-62 NSCLC.
Assay [10] concerns SNB-19 CNS.
The subject of assay [11] is SNB-75 CNS.
Assay [12] relates to HL-60(TB) leukemia.

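These data come from cells grown in 96-well plates and exposed to compound for 48 hours at five concentrations. TGI is the concentration that stops growth completely.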 Where a SMILES comes first, the peptide text is derived from it. [ ]: non-standard residue; d: D form. The star is where a group is joined. ξ: configuration not given here. ξD = NC(CC(=O)O)C(=O)O; Ac3c = NC1(C(=O)O)CC1; Boc = CC(C)(C)OC(=O)*; OtBu = CC(C)(C)O*

Turning to `CSCCCNC(=O)c1csc(-c2csc(CCNC(=O)CNC(=O)CNC(=O)CNC(=O)OC(C)(C)C)n2)n1`, the TGI in [1], in assay [2], in [3], in assay [4], in assay [5] and in assay [6] was above 100 µM throughout. Moreover, the TGI in assay [7], in assay [8], in assay [9], in [10] and in [11] was above 100 µM throughout.
In the case of `CCCCc1c2c(nc3c1CCc1cc4cc5c(nc4nc1-3)-c1nc3c(c(CCCC)c1CC5)CCC/C3=C\c1ccccc1)/C(=C/c1ccccc1)CCC2`, the TGI in assay [1], in assay [2], in assay [3], in assay [4], in assay [5] and in assay [6] was above 100 µM throughout. Moreover, the TGI in assay [12], in [9], in assay [10] and in assay [11] was above 100 µM throughout.
On to `CC1=C[C@@H](C)C[C@]2(C)CC[C@H](O2)[C@]23CC[C@](C)(C[C@H](O2)[C@@H]2O[C@@](C)(CC2=O)[C@@H](O)[C@H]2CC[C@@]4(CCC[C@@H](O4)[C@H](C)C(=O)O[C@H]4C[C@H]([C@]5(O)OCC[C@H](C)[C@@H]5O)O[C@H]4C=C1)O2)O3`, for which the TGI was 0.0231 µM in assay [1]; above 10 µM in assay [2]; 0.0277 µM in assay [3]; 0.0154 µM in assay [5]; above 10 µM in [6]; 0.0103 µM in assay [8]. Moreover, the TGI in assay [12] is above 10 µM; in assay [9], 0.00916 µM.
Take `Cc1occ2c1C(=O)CC1C2[C@@H](O)CC2C(C)(C)CCC[C@]12C` (stereo partly drawn): the TGI in [1], in assay [2], in assay [4], in assay [5], in assay [6] and in assay [12] was above 100 µM throughout. For the same compound, the TGI in assay [9], in assay [10] and in assay [11] was above 100 µM throughout.
Consider `CC(=O)Nc1ccc(C(=O)N2N=C(C)/C(=C/c3cccc([N+](=O)[O-])c3)C2=O)cc1`, for which the TGI in [1], in assay [2], in [3], in [4], in assay [6] and in assay [12] was above 100 µM in each case. Moreover, the TGI in [9], in assay [10] and in assay [11] was above 100 µM in each case.
As for `O=C(COc1ccc(Cl)cc1)N1CCN(C(=O)COc2ccc(Cl)cc2)c2ccccc21`, the TGI in assay [1] was 53.9 µM; in assay [2] it was above 100 µM; in assay [3], above 100 µM; in assay [4], above 100 µM; in assay [5] it was above 100 µM; in assay [6], above 100 µM. The TGI in [12] is 37.2 µM; in assay [9], above 100 µM; in assay [11], above 100 µM.
As to `Nc1ccc(C(=O)NN2C(=O)C(Cl)C2c2cccc(O)c2)cc1` (stereo not drawn), the TGI was 35 µM in assay [1]; 44.5 µM in assay [2]; 30.5 µM in [3]; 25.8 µM in [4]; 28.6 µM in assay [5]; 41.1 µM in assay [6]. Further, the TGI in [12] came out at 8.76 µM; in assay [9], 30.7 µM; in assay [10] it was 30.5 µM; in assay [11], 56.1 µM.
`C#CCSc1nc(N)c2ncn(C3OC(COP(=O)(O)O)C(O)C3O)c2n1` (stereo not drawn): the TGI in [1], in assay [2], in assay [3], in [4], in assay [5] and in [6] was above 239 µM in each case. In addition, the TGI in assay [12], in assay [9], in [10] and in [11] was above 239 µM in each case.
In the case of `COC(=O)C1(NC(=O)C(CC(=O)OC(C)(C)C)NC(=O)OC(C)(C)C)CC1` (stereo not drawn) (Boc-[ξD](OtBu)-[Ac3c]-OMe), the TGI in assay [1], in assay [2], in assay [3], in [4], in assay [5] and in assay [6] was above 100 µM in each case. In addition, the TGI in assay [7], in assay [8], in [9], in [10] and in [11] was above 100 µM in each case.
Take `COC(=O)/C(=C\c1ccco1)P(=O)(OC)OC`: the TGI in assay [2], in [3], in [4], in assay [5], in assay [6] and in assay [7] was above 100 µM throughout. The TGI in assay [8] was above 100 µM; in [9], 52.7 µM; in assay [10] it was above 100 µM; in [11], above 100 µM.
Turning to `CC(C)C(C/C=C1/CC(CO)(COC(=O)C2CCCCC2)OC1=O)C(C)C` (stereo not drawn), the TGI in assay [1] is 33.1 µM; in assay [2], above 100 µM; in assay [3], 37.4 µM; in assay [4], 33.9 µM; in [5] it was 34.2 µM; in assay [6], 94.8 µM. Further, the TGI in assay [7] is above 100 µM; in assay [8], 54.8 µM; in [9], 26.9 µM; in [10], 29.8 µM; in [11], 28.8 µM.
As for `C=CCC1(CC)C(=O)NC(=O)NC1=O`, the TGI in assay [1], in [2], in assay [3], in assay [4], in assay [5] and in assay [6] was above 100 µM each time. The TGI in [12], in [9], in assay [10] and in assay [11] was above 100 µM throughout.
